Assay: Flavor release from chewing gum, mechanical mastication device with artificial saliva
Type: physicochemical
Conditions: chewing gum with 2% flavor system
Experimental: To test if adequate flavor is released from chewing gum, the chewing gums made in Example 5 were tested using a mechanical instrument to simulate human mastication of chewing gum, which can be found in Kleber et al. A mastication device designed for the evaluation of chewing gum is set forth in Journal of Dental Research, 1981, 109-114, which is incorporated herein in its entirety. Artificial saliva (15 ml) was placed in the reservoir, and the thermostatically controlled heating element was turned on to maintain the saliva and gum at body temperature for proper chewing consistency. One stick of test chewing gum (approximately 3 grams with 2% flavor system added) was placed in the warmed chamber and the artificial saliva was exposed to the chewing gum for 1 minute under chewing simulation conditions. All the artificial saliva (15 ml) was removed as quickly as possible with a pipette, delivered immediately into a glass bottle and sealed. The saliva was replaced with a fresh 15 ml aliquot, the chewing conditions restarted and the gum samples were treated for another minute. […] Two markers, Marker 1, thymol, and Marker 2, menthol, were selected to monitor flavor release based on quantity and antimicrobial efficiency. […] It was estimated that enough flavor was released during the first 15-20 minutes to have antimicrobial activity based on the quantity released and the MIC results.

Cc1ccc(C(C)C)c(O)c1 [Marker 1, thymol]
release course over time of chewing: released constantly for the first 10 minutes and afterward decreases

Source: patent US11211249B2, “Herbal extracts and flavor systems for oral products and methods of making the same” (Sensient Flavors LLC, priority 2008, dated 2021)
